The values that follow come from patent US12673073B2, “FasL-engineered biomaterials with immunomodulatory function” (University of Louisville Research Foundation, Inc., priority 2017, dated 2026).

For assay [1], the system named is allogeneic (Balb/c) islets in streptozotocin-diabetic C57BL/6 mice. In words: Allogeneic islet transplantation under the kidney capsule of diabetic mice. The format is in vivo, mouse. The settings on record: rapamycin injections 0.2 mg/kg daily 15 doses, without SA-FasL-engineered microgels.
Protocol: Islet transplantation. BALB/c pancreatic islets were isolated using Liberase TL as a digestive enzyme (Roche Life Science) and purified by a Ficoll density gradient as previously published. […] To biotinylate islets, overnight cultured islets were incubated in 5 μM EZ-Link Sulfo-NHS-LC-Biotin (Thermo Scientific) for 30 min at room temperature, washed extensively with PBS to remove unbound biotin solution. […] Approximately, 500 islets were co-transplanted with 1000 microgels into streptozotocin diabetic (200 mg/kg i.p., diabetes (>250 mg/dL) confirmed on two consecutive days) C57BL/6 or B6.129(Cg)-Foxp3^tm3(DTR/GFP)Ayr (C57BL/6.FoxP3^EGFP/DTR) recipients, where indicated. For Treg depletion, islet graft recipients were injected i.p. with diphtheria toxin (50 μg/kg body weight) and depletion was confirmed 3 days later in peripheral blood lymphocytes using flow cytometry. Selected groups were also treated i.p. with rapamycin at 0.2 mg/kg daily for 15 doses starting the day of transplantation. Unmodified BALB/c islets co-transplanted with unmodified PEG gels were used as controls. Animals were monitored for blood glucose and >250 mg/dL blood glucose levels for two consecutive daily measurements were considered rejected. […] Blood glucose levels were assessed by tail prick before injection and 10, 20, 30, 60, 90, 120 minutes after injection. […]
Assay [2] has as its target avidin (Gallus gallus, UniProt P02701). The note with it: cited from earlier work.
For assay [3], the target named is SA (Streptomyces avidinii, UniProt P22629). The note with it: cited from earlier work.
Sequence of SA (P22629 25-183): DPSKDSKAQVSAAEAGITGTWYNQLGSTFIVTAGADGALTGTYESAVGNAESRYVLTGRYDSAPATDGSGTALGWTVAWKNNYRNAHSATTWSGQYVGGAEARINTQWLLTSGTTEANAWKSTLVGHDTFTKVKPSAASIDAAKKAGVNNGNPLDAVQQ

Sequence of avidin (P02701 25-152): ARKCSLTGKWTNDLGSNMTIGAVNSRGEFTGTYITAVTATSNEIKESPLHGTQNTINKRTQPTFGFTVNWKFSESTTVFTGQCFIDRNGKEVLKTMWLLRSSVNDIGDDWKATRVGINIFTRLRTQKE

Regarding `CO[C@H]1C[C@@H]2CC[C@@H](C)[C@@](O)(O2)C(=O)C(=O)N2CCCC[C@H]2C(=O)O[C@H]([C@H](C)C[C@@H]2CC[C@@H](O)[C@H](OC)C2)CC(=O)[C@H](C)/C=C(\C)[C@@H](O)[C@@H](OC)C(=O)[C@H](C)C[C@H](C)/C=C/C=C/C=C/1C` [rapamycin], the “median survival time (MST) of islet grafts” value in assay [1] turned out to be 36 days.

On to `O=C(O)CCCC[C@@H]1SC[C@@H]2NC(=O)N[C@@H]21` [biotin], for which the affinity for avidin in assay [2] is 10^15 M^−1. Further, in assay [3], the “affinity for SA” value is 10^13 M^−1.
